In US8912202B2, “N-(benzimimdazol-2-yl)-cyclopropane carboxamides as lysophosphatidic acid antagonists” (Merck Patent GmbH, priority 2011, dated 2014):

target: T1, LPA2R (Homo sapiens, UniProt Q9HBW0); experiment: LPA2R-Calciumflux assay (FLIPR, intracellular calcium mobilisation after LPA); assay type: cell-based; settings: U2OS cells recombinant expressing LPA2R; antagonism of LPA-induced calcium flux; racemate of the two trans enantiomers unless marked enantiomer
T1 construct: expressed in transfected cells; host or cells: U2OS
T1 sequence (Q9HBW0 whole entry): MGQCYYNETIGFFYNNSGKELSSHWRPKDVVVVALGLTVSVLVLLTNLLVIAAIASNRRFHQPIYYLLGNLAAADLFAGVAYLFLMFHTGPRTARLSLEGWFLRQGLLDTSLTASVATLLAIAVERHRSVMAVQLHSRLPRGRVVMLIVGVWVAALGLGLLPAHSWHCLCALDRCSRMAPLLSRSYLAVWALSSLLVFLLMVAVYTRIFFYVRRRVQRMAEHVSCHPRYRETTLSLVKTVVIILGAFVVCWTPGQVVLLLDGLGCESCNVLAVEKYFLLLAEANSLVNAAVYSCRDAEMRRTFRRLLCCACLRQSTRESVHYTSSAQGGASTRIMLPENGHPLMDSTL
Excerpt: The assay detects intra cellular calcium which is generated by cells upon activation of the LPA2 receptor by its ligand LPA. This transient calcium mobilization can be monitored using a commercial calcium detection kit (e.g. from Molecular Devices). The main component of such a kit is a dye, which becomes fluorescent when calcium is present—a transient fluorescence signal after addition of a ligand to a test well are the result. Readers like the FLIPR (Molecular Devices) can be used to monitor such transient “Ca-flux” signals.
The signals are calculated according to peak maximum minus base line.
Compounds which are antagonists of LPA lead to a decreased mobilisation of intracellular calcium and thus to a lower signal. The assay is performed in microplates (384 wells per plate).
LPA2R-Calciumflux Assay Protocol
The assay is run according to the following procedure:
50 uL seed cells (10000 cells/well in DMEM buffer)
• Incubate 24 h at 37° C., 10% CO2 • aspirate medium 50 uL add calcium dye 1×HBSS/HEPES buffer • incubate 1 h at 37° C. (“loading”) • equilibrate 10 min at RT 5 uL add compounds in HEPES buffer • shake 10 sec. at 1000 rpm • incubate 15 min at RT 20 uL add LPA (in the FLIPR Tetra) in Krebs-buffer/BSA & measurement
The cells are seeded in DMEM buffer (DMEM, 10% FCS, 10 mM HEPES, 1% Pen/Strep).
Dye loading is done in HBSS/HEPES buffer (100 mL 10×HBSS+20 mL 1M HEPES+880 mL water, pH 7.4)
The LPA is added in Krebs/BSA buffer (120 mM NaCl, 5 mM KCl, 0.62 mM MgSO4, 1.8 mM CaCl2, 10 mM HEPES, 6 mM D(+)-Glucose, 0.2% BSA, pH 7.4).
The compounds are pre-diluted in HEPES buffer (20 mM, pH 7.4), whereby the final DMSO content in the assay is kept at 1%. The compounds are pre-diluted in order to generate dose response series on the microplates. The dose response series consist of 10 concentrations for each compound from 30 uM final to 1 nM final. From all compound wells the resulting signals are referred to control wells (located on each plate besides the compound wells) in terms of % activity.
From these % activity values—along with the corresponding compound concentrations—IC50 values are fitted for each compound using standard fitting programs such as Graphpad Prism. Here the method “log(inhibitor) vs. response—Variable slope” is used.

Compound	IC50 [nM]
O=C(Nc1nc2cncnc2[nH]1)C1CC1c1ccccc1 (racemic) [2-Phenyl-cyclopropane-carboxylic acid (9H-purin-8-yl)-amide]	1000 to 10000
CCCS(=O)(=O)c1ccc2[nH]c(NC(=O)C3CC3c3ccccc3)nc2c1 (racemic) [2-Phenyl-cyclopropane-carboxylic acid [5-(propane-1-sulfonyl)-1H-benzoimidazol-2-yl]-amide]	1000 to 10000
O=C(Nc1nc2c(NCC3CCN(Cc4ccccc4)CC3)cccc2[nH]1)C1CC1c1ccccc1 (racemic) [2-Phenyl-cyclopropane-carboxylic acid {4-[(1-benzyl-piperidin-4-ylmethyl)-amino]-1H-benzoimidazol-2-yl}-amide]	1000 to 10000
CC(C)(C)OC(=O)NCc1ccc2[nH]c(NC(=O)C3CC3c3ccccc3)nc2c1 (racemic) [{2-[(2-Phenyl-cyclopropane-carbonyl)-amino]-1H-benzoimidazol-5-ylmethyl}-carbamic acid tert-butyl ester]	100 to 1000
O=C(Nc1nc2cc(Cl)cnc2[nH]1)[C@@H]1C[C@H]1c1ccccc1 (single isomer, unassigned) [trans-2-Phenyl-cyclopropane-carboxylic acid (6-chloro-3H-imidazo[4,5-b]pyridin-2-yl)-amide]	1000 to 10000
O=C(Nc1nc2ccc(Cl)cc2[nH]1)C1CC1c1ccccc1Cl (single isomer, unassigned; enantiomer-2) [enantiomer-2-(2-Chloro-phenyl)-cyclopropane-carboxylic acid (6-chloro-1H-benzoimidazol-2-yl)-amide]	100 to 1000
O=C(Nc1nc2ccnc(Cl)c2[nH]1)C1CC1c1ccccc1 (single isomer, unassigned; enantiomer-2) [enantiomer-2-Phenyl-cyclopropane-carboxylic acid (4-chloro-3H-imidazo[4,5-c]pyridin-2-yl)-amide]	10 to 100
O=C(Nc1nc2c(OCCN3CCCC3)cccc2[nH]1)C1CC1c1ccccc1 (single isomer, unassigned; enantiomer-2) [enantiomer-2-Phenyl-cyclopropane-carboxylic acid [4-(2-pyrrolidin-1-yl-ethoxy)-1H-benzoimidazol-2-yl]-amide]	100 to 1000
O=C(Nc1nc2cc(OCCN3CCCC3)ccc2[nH]1)C1CC1c1ccccc1 (single isomer, unassigned; enantiomer-2) [enantiomer-2-Phenyl-cyclopropane-carboxylic acid [5-(2-pyrrolidin-1-yl-ethoxy)-1H-benzoimidazol-2-yl]-amide]	1000 to 10000
COC(=O)c1cccc2nc(NC(=O)C3CC3c3ccccc3Cl)[nH]c12 (single isomer, unassigned; enantiomer-2) [enantiomer-2-{[2-(2-Chloro-phenyl)-cyclopropane-carbonyl]-amino}-3H-benzoimidazole-4-carboxylic acid methyl ester]	> 10000
O=C(Nc1nc2cc(Br)cnc2[nH]1)[C@H]1C[C@@H]1c1ccccc1 [(1S,2S)-2-Phenyl-cyclopropanecarboxylic acid (6-bromo-3H-imidazo[4,5-b]pyridin-2-yl)-amide]	10 to 100

More lines, now with the values ahead:

IC50 [nM]	Compound
100 to 1000	Cc1cccc2nc(NC(=O)C3CC3c3ccccc3)[nH]c12 (racemic) [2-Phenyl-cyclopropane-carboxylic acid (7-methyl-1H-benzoimidazol-2-yl)-amide]
100 to 1000	COC(=O)c1cccc2[nH]c(NC(=O)C3CC3c3ccccc3)nc12 (racemic) [2-[(2-Phenyl-cyclopropane-carbonyl)-amino]-1H-benzoimidazole-4-carboxylic acid methyl ester]
> 10000	O=C(O)c1ccc2[nH]c(NC(=O)C3CC3c3ccccc3)nc2c1 (racemic) [2-[(2-Phenyl-cyclopropane-carbonyl)-amino]-1H-benzoimidazole-5-carboxylic acid]
10 to 100	Cc1cccc(C2CC2C(=O)Nc2nc3ccccc3[nH]2)c1 (racemic) [2-m-Tolyl-cyclopropane-carboxylic acid (1H-benzoimidazol-2-yl)-amide]
1000 to 10000	Cc1ccc(C2CC2C(=O)Nc2nc3ccccc3[nH]2)cc1 (racemic) [2-p-Tolyl-cyclopropane-carboxylic acid (1H-benzoimidazol-2-yl)-amide]
10 to 100	O=C(Nc1nc2ccccc2[nH]1)C1CC1c1ccccc1Cl (single isomer, unassigned) [enantiomer-2-(2-Chloro-phenyl)-cyclopropane-carboxylic acid (1H-benzoimidazol-2-yl)-amide]
1000 to 10000	O=C(Nc1nc2ccccc2[nH]1)C1CC1c1ccccc1 (single isomer, unassigned; enantiomer-2) [drawing 58, enantiomer-2-Phenyl-cyclopropane-carboxylic acid (1H-benzoimidazol-2-yl)-amide]
< 10	O=C(Nc1nc2ccccc2[nH]1)C1CC1c1ccccc1 (single isomer, unassigned; enantiomer-2) [drawing 59, enantiomer-2-Phenyl-cyclopropane-carboxylic acid (1H-benzoimidazol-2-yl)-amide]
10 to 100	N#Cc1ccc2nc(NC(=O)C3CC3c3ccccc3)[nH]c2c1 (single isomer, unassigned; enantiomer-2) [drawing 71, enantiomer-2-Phenyl-cyclopropane-carboxylic acid (6-cyano-1H-benzoimidazol-2-yl)-amide]
1000 to 10000	N#Cc1ccc2nc(NC(=O)C3CC3c3ccccc3)[nH]c2c1 (single isomer, unassigned; enantiomer-2) [drawing 72, enantiomer-2-Phenyl-cyclopropane-carboxylic acid (6-cyano-1H-benzoimidazol-2-yl)-amide]
10 to 100	O=C(Nc1nc2ccccc2[nH]1)C1CC1c1ccccc1Cl (single isomer, unassigned; enantiomer-2) [drawing 75, enantiomer-2-(2-Chloro-phenyl)-cyclopropane-carboxylic acid (1H-benzoimidazol-2-yl)-amide]
> 10000	O=C(Nc1nc2ccccc2[nH]1)C1CC1c1ccccc1Cl (single isomer, unassigned; enantiomer-2) [drawing 76, enantiomer-2-(2-Chloro-phenyl)-cyclopropane-carboxylic acid (1H-benzoimidazol-2-yl)-amide]
< 10	O=C(Nc1nc2cc(Cl)cnc2[nH]1)C1CC1c1ccccc1 (single isomer, unassigned; enantiomer-2) [enantiomer-2-Phenyl-cyclopropane-carboxylic acid (6-chloro-3H-imidazo[4,5-b]pyridin-2-yl)-amide]
